Experimental data: publication PMC11505650, “Chemical and Biological Characterization of Metabolites from Silene viridiflora Using Mass Spectrometric and Cell-Based Assays” (Biomolecules, 2024)

Columns and labels:
MDA-MB-231 cells = test: MTT cytotoxicity assay, MDA-MB-231 cells, 72 h; assay type: cell-based, human; conditions: MTT test, 72 h exposure
Procedure: (§1) The cytotoxic activity of the samples was screened against the human triple-negative breast cancer BT-20 (HTB-19), HCC1395 (ATCC®CRL-2324), MDA-MB-231 (CRM-HTB-26), and HEK293 (CRL-1573) embryonic kidney cell lines. The cells were cultured in Dulbecco’s modified eagle medium (DMEM) supplemented with 4.5 g/L glutamine and D-glucose, 10% fetal bovine serum (FBS), and a 1% penicillin/streptomycin mixture and incubated at 37 °C under a 5% CO2 humidified atmosphere. Cell passage and seeding performed after washing the adherent cells with PBS and detaching them using a Trypsin solution. The cells were detached and resuspended at 160,000 cells/mL and added into each well of a transparent 384-well plate in the final volume of 25 µL/well (4000 cells per well). The cells were maintained in DMEM containing 10% FBS at 37°C and 5% CO2 overnight. The next day, the 384-well plate was examined under an inverted microscope to identify cell seeding errors, growth characteristics, morphology and equal distribution. Then, the medium in each well was removed using a washer–dispenser (Biotek FX, Beersel, Belgium) and replaced by 40 μL of the fresh medium containing the indicated concentrations of compounds and incubated for 72 h.
(§2) The 250 µg/mL concentrations of methanol extract and 20 mM concentrations of individual compounds were prepared as a stock solution in DMSO (Sigma-Aldrich Chemie GmbH, Taufkirchen, Germany) prior to use. A complete medium was used to prepare this solution. The samples were further serially diluted in DMSO into eleven different concentrations and then added to the complete cell culture medium so as to attain the final concentrations ranging from 250 to 8.6 µg/mL (250, 178.6, 127.6, 91.1, 65.1, 46.5, 33.2, 23.7, 16.9, 12.1, and 8.6 µg/mL) for the extract and 20 to 1.45 µM (20, 15.4, 11.8, 9.1, 7.0, 5.4, 4.1, 3.2, 2.5, 1.9, and 1.5 µM) for the individual compounds in 384-well plates, which were added in four replicates. A 40 µL sample containing medium from each concentration was dispensed into each well. The concentration of the solvent, DMSO, was equal in all the wells and was fixed at 0.05% in the medium. As a negative control, cells were treated with DMEM containing DMSO. Docetaxel (concentration of 0.02 µM to 6.9 nM) is used as a positive control.
(§3) The cytotoxicity of the samples was determined in triplicate using the 3-(4,5-dimethylthiazol-2-yl)-2,5-diphenyltetrazolium bromide (MTT) cell viability assay. The next day, the medium of the 384-well plates treated with samples was removed. Then, 25 µL of MTT solution (0.5 mg MTT in 1 mL PBS) was added to each well and incubated at 37 °C for 2 h. After incubation with MTT for 2 h, the solution was removed from the wells by the washer–dispenser, and the formed formazan crystals were then dissolved in 25 µL of DMSO. After a further 10 min of incubation at room temperature, the samples were mixed briefly, and the absorbance was detected at 510 nm with a Tecan Infinite 200 Pro Reader (Tecan Group Ltd., Männedorf, Switzerland). The cell viability rate (%) was calculated by the following formula:Cell viability rate (%) = ((OD of treated cells − OD of media (blank)/(OD of control cells − OD of media (blank)) × 100%
(§4) The experiments were carried out in four replicates. Continuous variables were presented as the mean ± SD. […] The level of significance was set at p < 0.05. The IC50 (inhibitory concentration which caused 50% inhibition) was estimated using the linear regression method of plots of the percent of cell viability against the concentration of the tested compounds using GraphPad Prism 8.0.1 software (San Diego, CA, USA).

BT-20 cells = test: MTT cytotoxicity assay, BT-20 cells, 72 h; assay type: cell-based, human; conditions: MTT test, 72 h exposure
Procedure: as §1, §2, §3, §4

HEK293 cells = test: MTT cytotoxicity assay, HEK293 embryonic kidney cells, 72 h; assay type: cell-based, human; conditions: MTT test, 72 h exposure
HCC1395 cells = test: MTT cytotoxicity assay, HCC1395 cells, 72 h; assay type: cell-based, human; conditions: MTT test, 72 h exposure
Procedure: as §1, §2, §3, §4

[1] = system: MCF-7, MDA-MB-231, and MDA-MB-468 cells; design: method as in PMID 33192507; conditions: breast cancer cells; cited from earlier work
Wnt signaling = test: TOPFlash assay (Wnt3a-stimulated BT-20 reporter cells); assay type: cell-based, human; conditions: BT-20 cells, 20 µM (extract 20 μg/mL)
Procedure: The TOPFlash assay was performed as described. TNBC BT-20 cell line stably transfected with TopFlash reporter plasmid was seeded at 450,000 cells/mL in a white opaque 384-well plate in the final volume of 25 μL. The cells were maintained and incubated at 37 °C with 5% CO2 overnight for attachment. Subsequently, they were transfected by a plasmid encoding Renilla luciferase under the CMV promoter using 12 μg/mL of DNA and 40 μL/mL XtremeGENE 9 reagent as described in the manufacturer’s protocol. The next day, the medium in each well was replaced with a 20 μL fresh medium containing Wnt3a (2.5 μg/mL) and compound dilution. Compound dilutions were prepared by serial dilution in DMSO and diluted with the amount of medium necessary to obtain their final concentrations indicated on the figures and tables and maintain a concentration of DMSO of 0.05% in all assay points. Wnt3a was added after 1 h of preincubation with compound dilution. After overnight incubation, the supernatant in each well was removed by the washer–dispenser, and the luciferase activity was measured as described. […] Next, the luciferase activity of the firefly and Renilla luciferases was detected sequentially in individual wells of a 384-well plate through the injection of corresponding measurement solutions in Tecan Infinite 200 Pro multifunctional plate reader with an injection module.

[2] = Homo sapiens, MDA-MB-231, average ± SEM, N = 3
[3] = Homo sapiens, BT-20, average ± SEM, N = 3
[4] = Homo sapiens, HEK293, average ± SEM, N = 3
[5] = Homo sapiens, HCC1395, average ± SEM, N = 3

| SMILES | IC50 (MDA-MB-231 cells; [2]) [µM] | IC50 (BT-20 cells; [3]) [µM] | IC50 (HEK293 cells; [4]) [µM] | IC50 (HCC1395 cells; [5]) [µM] | other results |
| --- | --- | --- | --- | --- | --- |
| O=C(O)[C@]1(O)C[C@@H](O)[C@@H](O)[C@H](O)C1 [Compound 12, Quinic acid] | > 20 | > 20 | > 20 | > 20 |  |
| COc1cc(/C=C/C(=O)O)ccc1O [Compound 19, Ferulic acid] |  |  |  |  | IC50 (MDA-MB-231 cells; average ± SEM, N = 3): > 20 µM; IC50 (BT-20 cells; average ± SEM, N = 3): > 20 µM; IC50 (HEK293 cells; average ± SEM, N = 3): > 20 µM; IC50 (HCC1395 cells; average ± SEM, N = 3): > 20 µM |
| O=C(O)C=Cc1ccc(O)cc1 [Compound 21, p-Coumaric acid] | > 20 | > 20 | > 20 | > 20 |  |
| O=c1cc(-c2ccc(O)cc2)oc2c([C@@H]3OC[C@H](O)[C@H](O)[C@H]3O)c(O)c([C@@H]3O[C@H](CO)[C@@H](O)[C@H](O)[C@H]3O)c(O)c12 [Compound 29, Schaftoside (apigenin 6-C-β-D -glucoside-8-C-α-L-arabinoside)] | > 20 | > 20 | > 20 | > 20 |  |
| O=c1cc(-c2ccc(O)cc2)oc2cc(O[C@@H]3O[C@H](CO)[C@@H](O)[C@H](O)[C@H]3O)c([C@@H]3O[C@H](CO)[C@@H](O)[C@H](O)[C@H]3O)c(O)c12 [Compound 38, Saponarin (isovitexin 7-O-β-D-glucoside)] |  |  |  |  | IC50 (MDA-MB-231 cells; average ± SEM, N = 3): > 20 µM; IC50 (BT-20 cells; average ± SEM, N = 3): > 20 µM; IC50 (HEK293 cells; average ± SEM, N = 3): > 20 µM; IC50 (HCC1395 cells; average ± SEM, N = 3): > 20 µM |
| C[C@@H]1O[C@@H](OC[C@H]2O[C@@H](Oc3c(-c4ccc(O)c(O)c4)oc4cc(O)cc(O)c4c3=O)[C@H](O)[C@@H](O)[C@@H]2O)[C@H](O)[C@H](O)[C@H]1O [Compound 41, Rutin (quercetin-3-O-rutinoside)] | > 20 | > 20 | > 20 | > 20 |  |
| CC(C)(O)CC[C@@H](O)[C@](C)(O)[C@H]1CC[C@@]2(O)C3=CC(=O)[C@@H]4C[C@@H](O)[C@@H](O)C[C@]4(C)[C@H]3CC[C@]12C [Compound 50, 20-Hydroxyecdysone] | > 20 | > 20 | > 20 | > 20 | Concentration range in which autophagy induction / synergistic effect with doxorubicin was observed [1]: 250 to 750 µM |
| CC(C)(O)CC[C@@H](O)[C@](C)(O)[C@H]1CC[C@@]2(O)C3=CC(=O)[C@@H]4C[C@@H](O)CC[C@]4(C)[C@H]3CC[C@]12C [Compound 58, 2-Deoxy-20-hydroxyecdysone] | 0.53 ± 0.14 | 0.12 ± 0.006 | 0.27 ± 0.01 | 0.21 ± 0.01 | Inhibition of Wnt signaling (Wnt signaling): not a Wnt signaling inhibitor |
| CC1(C)CC[C@]2(C(=O)O)CC[C@]3(C)C(=CC[C@@H]4[C@@]5(C)CC[C@H](O)C(C)(C)[C@@H]5CC[C@]43C)[C@@H]2C1 [Compound 71, Oleanolic acid] | > 20 | > 20 | > 20 | > 20 |  |
| C[C@H]([C@H](O)CCC(C)(C)O)[C@H]1CC[C@@]2(O)C3=CC(=O)[C@@H]4C[C@@H](O)CC[C@]4(C)[C@H]3CC[C@]12C [Compound 72, 2-Deoxyecdysone] | > 20 | > 20 | > 20 | > 20 |  |
| C[C@H]([C@H](O)CCC(C)(C)O)[C@H]1CC[C@@]2(O)C3=CC(=O)[C@@H]4C[C@@H](O)[C@@H](O)C[C@]4(C)[C@H]3CC[C@]12C [Compound 73, Ecdysone] | > 20 | > 20 | > 20 | > 20 |  |
| CC(=O)OC(C)(C)CC[C@@H](O)[C@](C)(O)[C@H]1CC[C@@]2(O)C3=CC(=O)[C@@H]4C[C@@H](O)[C@@H](O)C[C@]4(C)[C@H]3CC[C@]12C [Compound 74, Viticosterone E] | > 20 | > 20 | > 20 | > 20 |  |
| CC(C)(O)CC[C@@H](O)[C@](C)(O)[C@H]1CC[C@@]2(O)C3=CC(=O)[C@@H]4C[C@@H](O)[C@@H](O)C[C@]4(C)[C@H]3[C@H](O)C[C@]12C [Compound 75, Turkesterone] | > 20 | > 20 | > 20 | > 20 |  |
| C[C@@H]1C(=O)O[C@H](C)[C@H]1C[C@@H](O)[C@](C)(O)[C@H]1CC[C@@]2(O)C3=CC(=O)[C@@H]4C[C@@H](O)[C@@H](O)C[C@]4(C)[C@H]3CC[C@]12C [Compound 76, Cyasterone] | > 20 | > 20 | > 20 | > 20 |  |
| CC(=O)O[C@@]12CO[C@@H]1C[C@H](O)[C@@]1(C)C(=O)[C@H](O)C3=C(C)[C@@H](OC(=O)[C@H](O)[C@@H](NC(=O)OC(C)(C)C)c4ccccc4)C[C@@](O)([C@@H](OC(=O)c4ccccc4)[C@H]21)C3(C)C [Docetaxel, reference compound] |  |  |  |  | IC50 (MDA-MB-231 cells; Homo sapiens, MDA-MB-231, positive control): 0.0177 ± 2.9e-06 µM; IC50 (BT-20 cells; Homo sapiens, BT-20, positive control): 0.0044 ± 8e-07 µM; IC50 (HEK293 cells; Homo sapiens, HEK293, positive control): 0.00447 ± 1.3e-06 µM; IC50 (HCC1395 cells; Homo sapiens, HCC1395, positive control): 0.0065 ± 7e-07 µM |
